Experiment [1] relates to RNA polymerase II (Pol II) loading. Briefly: Chromatin immunoprecipitation of Pol II, qPCR for TAR DNA. To be noted: U1; CBD 10 μM, Flavo 50 nM; 2-hour and 6-hour; FIG. 15C. The experiment is classed as cell-based. Here is the method:
FIGS. 15A-15C are graphs and gels showing cannabidiols lower intracellular viral transcription and downstream viral products. U1 cells (1×10^6) were treated with a titration of CBD (1, 5, 10 μM) and THC (1, 5, 10 μg/mL) every day for 5 days. A) Intracellular RNA was isolated and analyzed through RT-qPCR for HIV-1 viral transcripts TAR and env. Each bar represents an average of three independent replicates. B) U1 cells (2×10^6) were treated with a titration of CBD (1, 5, 10 μM) every day for 5 days. Cells pellets were lysed, run through SDS-PAGE, and western blotted for (p-)/NF-κB, autophagosomal markers (p63, LC3), EV biogenesis marker VPS4, viral markers (gp120, Nef, p24), and Actin. C) U1 cells (5×10^6) were treated±CBD (10 μM) and Flavopiridol hydrochloride (50 nM; indicated as Flavo) and incubated for the following time points: 0 minutes, 2 hours and 6 hours. Cells were cross-linked with 1% formaldehyde solution and ChIP-ed for IgG and Pol II. ChIP DNA samples were analyzed via qPCR for TAR and env. Student's t-test was used for statistical analysis, where *p-value≤0.05; **p-value≤0.01, ***p-value≤0.001. […]
U1 monocytes were treated with CBD (10 μM) and Flavo (50 nM) for short periods (0, 2 and 6 hours) due to the fact that HIV-1 transcription activity is a rapid event that can be scored using chromatin immunoprecipitation (ChIP) assay for factor occupancy. […]
A general note: In qPCR the cycle at which signal appears reflects the starting amount.

Experiment [2] deals with HIV-1 infected monocytes (U1). Nature of the experiment: Western blot/densitometry of intracellular viral and ESCRT proteins in U1 cells. The experiment is classed as cell-based. Here is the method: FIGS. 15A-15C are graphs and gels showing cannabidiols lower intracellular viral transcription and downstream viral products. U1 cells (1×10^6) were treated with a titration of CBD (1, 5, 10 μM) and THC (1, 5, 10 μg/mL) every day for 5 days. A) Intracellular RNA was isolated and analyzed through RT-qPCR for HIV-1 viral transcripts TAR and env. Each bar represents an average of three independent replicates. B) U1 cells (2×10^6) were treated with a titration of CBD (1, 5, 10 μM) every day for 5 days. Cells pellets were lysed, run through SDS-PAGE, and western blotted for (p-)/NF-κB, autophagosomal markers (p63, LC3), EV biogenesis marker VPS4, viral markers (gp120, Nef, p24), and Actin. C) U1 cells (5×10^6) were treated±CBD (10 μM) and Flavopiridol hydrochloride (50 nM; indicated as Flavo) and incubated for the following time points: 0 minutes, 2 hours and 6 hours. Cells were cross-linked with 1% formaldehyde solution and ChIP-ed for IgG and Pol II. ChIP DNA samples were analyzed via qPCR for TAR and env. Student's t-test was used for statistical analysis, where *p-value≤0.05; **p-value≤0.01, ***p-value≤0.001.
FIGS. 16A-16E are graphs showing normalized densitometry analysis of CBD lowering intracellular […] in HIV-1 infected monocytes. (A) Nef, (B) Pr55, (C) p24, (D) VPS4, and (E) CHMP6 densitometry counts were performed on the Western blot data from FIG. 4B, all of which were normalized to Actin levels.
Laemmli buffer was added to sample cell lysates (10-20 μg) or NT80/82 pellets. Lysates were heated at 95° C. for 3 min and 15 μL of sample was loaded onto a 4-20% Tris/glycine gel (Invitrogen). When analyzing NT80/82 pellets, samples were heated at 95° C. for 3 min, vortexed, and then heated two additional times to release captured material from NT80/82 beads. Following the release of captured cargo, the total sample was then loaded on to a 4-20% Tris-Glycine gel (Invitrogen). Gels were run at 100 V and transferred onto Immobilon PVDF membranes (Millipore) at 50 mA overnight. Membranes were blocked in 5% milk in PBS with 0.1% Tween-20 (PBS-T) for 2 h at 4° C., then incubated overnight at 4° C. in PBS-T with the appropriate primary antibody ((α-p24 (Cat: 4121; NIH AIDS Reagent Program), α-Nef (Cat: 3689; NIH AIDS Reagent Program), α-gp120 (Cat: 522; NIH AIDS Reagent Program), α-CD81 (Cat: EXOAB-CD81A-1; SBI), α-VPS4 (Cat: sc-32922; Santa Cruz Biotechnology), α-CHMP6 (Cat: sc-67231; Santa Cruz Biotechnology), α-Actin (ab-49900; Abcam), α-CD63 (Cat: EXOAB-CD63A-1; Systems Biosciences), α-SQSTM1/p62 (Cat: 5114; Cell Signaling Technology), α-MAP LC3 α/β (Cat: sc-398822; Santa Crux Biotechnology), α-Alix (Cat: sc-49268; Santa Cruz Biotechnology), α-ATG12 (Cat: sc-271688; Santa Cruz Biotechnology), α-Beclin 1 (Cat: sc-48341; Santa Cruz Biotechnology)). Membranes were washed with PBS-T and incubated for 2 h with the indicated HRP-conjugated secondary antibody at 4° C. HRP luminescence was activated with Clarity Western ECL Substrate (Bio-Rad) and visualized by the Molecular Imager ChemiDoc Touch system (Bio-Rad).
ImageJ software was used to conduct densitometry analysis on the kinase and western blot images. Background measurements were deducted from each lane to account for exposure, followed by normalization of each lane to each respective Actin measurements. […] Percent changes were calculated by subtracting normalized lane measurements from the normalized control lane.
This is potentially due innate differences in the abundance of these mRNAs. […]
On the technique in general: A western blot detects proteins with antibodies after separation by electrophoresis.

Where [3] appears, read: 10 μM every day for 5 days, FIG. 16.
Where [4] appears, read: CBD 1, 5, 10 μM every day for 5 days.

Experimental findings from patent US12208080B2, “Compositions and methods for modulation of extracellular vesicle release and treatment of neurological disorders” (GEORGE MASON RESEARCH FOUNDATION, INC., priority 2018, dated 2025) are described below.

Molecules are shown by their SMILES.

Turning to `C=C(C)[C@@H]1CCC(C)=C[C@H]1c1c(O)cc(CCCCC)cc1O` [CBD, 2-[1R-3-methyl-6R-(1-methylethenyl)-2-cyclohexen-1-yl]-5-pentyl-1,3-benzenediol], in experiment [1], the “Pol II-associated TAR DNA versus untreated” value is “statistically significant decreases”. In addition, in experiment [2] (setting [3]), the “reduction in intracellular Nef (densitometry)” value was determined as 62%, the “reduction in intracellular Pr55 (densitometry)” value was 99% and the “reduction in intracellular p24 (densitometry)” value amounted to 76%. Also, in experiment [2] (setting [4]), the “intracellular CHMP6 (ESCRT-III)” value was “slight increase” and the “intracellular VPS4” value is on record as “slight increase”.
